Assay results as given in patent US12692261B2, “Substituted heterocyclic compounds and therapeutic uses thereof” (Bayer Aktiengesellschaft, priority 2020, dated 2026).
pIC50: −log10 of the molar value.

Legend:
[1] = biological target: T1, full-length human CSNK1A1 (Homo sapiens, UniProt P48729); test: CSNK1A1 High ATP Assay (ADP-Glo, 1 mM ATP); type: biochemical; settings: Table 3, read-out: CSNK1A1 high ATP assay IC50 [mol/l] (median);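 note: 30 min kinase reaction at 22 °C with 100 µM peptide substrate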
T1 construct: N-terminal Glutathion-S-Transferase (GST) and full-length human CSNK1A1; purchased Life Technologies PV4174; host or cells: baculovirus infected insect cells
T1 sequence (P48729 whole entry): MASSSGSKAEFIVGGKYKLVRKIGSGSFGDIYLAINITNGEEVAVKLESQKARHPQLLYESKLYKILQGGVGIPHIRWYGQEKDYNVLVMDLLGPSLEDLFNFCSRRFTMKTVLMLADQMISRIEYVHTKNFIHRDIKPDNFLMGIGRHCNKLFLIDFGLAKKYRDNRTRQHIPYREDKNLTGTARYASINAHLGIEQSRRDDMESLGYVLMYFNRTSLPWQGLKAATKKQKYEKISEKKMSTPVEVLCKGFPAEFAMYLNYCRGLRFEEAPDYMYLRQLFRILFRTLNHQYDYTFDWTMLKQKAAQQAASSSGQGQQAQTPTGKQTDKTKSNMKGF
In short: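 Kinase activity taken as ADP generated, quantified by ADP-Glo luminescence after 1 h ATP depletion and 1 h detection at 22 °C. Enzyme is GST–full-length human CSNK1A1 (insect cell-expressed), pre-bound to compound for 15 min, with phosphopeptide substrate and 1 mM ATP.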

[2] = biological target: T1, full-length human CSNK1A1; test: CSNK1A1 Assay 2 (ADP-Glo, 1 μM ATP, substrate biotin-Ahx-KRRRAL-pS-VASLPGL); type: biochemical; settings: Table 3, read-out: CSNK1A1 Assay 2 IC50 [mol/l] (median)
In short: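 Activity read as ADP generated (ADP-Glo luciferase luminescence, 1 h detection steps at 22 °C). Enzyme was insect-cell-expressed GST–full-length human CSNK1A1, compound-preincubated 15 min before reaction with phosphopeptide substrate and 1 μM ATP in 50 mM HEPES pH 7.5, 10 mM MgCl2.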

| Structure (SMILES) | pIC50 [1] | pIC50 [2] |
| --- | --- | --- |
| O=C(Nc1cc(-c2[nH]c3c(O[C@H]4CCOC4)cc(F)nc3c2-c2ccccn2)ccn1)C(CC(F)F)c1ccc(F)cc1 (single isomer, unassigned) [Example 54, (2R or S)-4,4-difluoro-N-{4-[5-fluoro-7-{[(3S)-oxolan-3-yl]oxy}-3-(pyridin-2-yl)-1H-pyrrolo[3,2-b]pyridin-2-yl]pyridin-2-yl}-2-(4-fluorophenyl)butanamide] | 8.37 | 8.37 |
| O=C(Nc1cc(-c2[nH]c3c(O[C@H]4CCOC4)cc(F)nc3c2-c2ccccn2)ccn1)C(CC(F)F)c1ccc(F)cc1 (single isomer, unassigned) [Example 55, (2R or S)-4,4-difluoro-N-{4-[5-fluoro-7-{[(3S)-oxolan-3-yl]oxy}-3-(pyridin-2-yl)-1H-pyrrolo[3,2-b]pyridin-2-yl]pyridin-2-yl}-2-(4-fluorophenyl)butanamide] | 7.74 | 7.74 |
| O=C(Nc1cc(-c2[nH]c3c(OC[C@@H]4COCCO4)cc(F)nc3c2-c2ccccn2)ccn1)C(CC(F)F)c1ccc(F)cc1 (single isomer, unassigned) [Example 58, (2R or S)—N-{4-[7-{[(2S)-1,4-dioxan-2-yl]methoxy}-5-fluoro-3-(pyridin-2-yl)-1H-pyrrolo[3,2-b]pyridin-2-yl]pyridin-2-yl}-4,4-difluoro-2-(4-fluorophenyl)butanamide] | 8.45 | 8.45 |
| O=C(Nc1cc(-c2[nH]c3c(OC[C@@H]4COCCO4)cc(F)nc3c2-c2ccccn2)ccn1)C(CC(F)F)c1ccc(F)cc1 (single isomer, unassigned) [Example 59, (2R or S)—N-{4-[7-{[(2S)-1,4-dioxan-2-yl]methoxy}-5-fluoro-3-(pyridin-2-yl)-1H-pyrrolo[3,2-b]pyridin-2-yl]pyridin-2-yl}-4,4-difluoro-2-(4-fluorophenyl)butanamide] | 7.90 | 7.90 |
| O=C(Nc1cc(-c2[nH]c3ncc(F)nc3c2-c2ccccn2)ccn1)C(CC(F)F)c1ccc(F)cc1 (single isomer, unassigned) [Example 63, (2R or S)-4,4-difluoro-2-(4-fluorophenyl)-N-{4-[2-fluoro-7-(pyridin-2-yl)-5H-pyrrolo[2,3-b]pyrazin-6-yl]pyridin-2-yl}butanamide] | 8.83 | 8.83 |
| O=C(Nc1cc(-c2[nH]c3ncc(F)nc3c2-c2ccccn2)ccn1)C(CC(F)F)c1ccc(F)cc1 (single isomer, unassigned) [Example 64, (2R or S)-4,4-difluoro-2-(4-fluorophenyl)-N-{4-[2-fluoro-7-(pyridin-2-yl)-5H-pyrrolo[2,3-b]pyrazin-6-yl]pyridin-2-yl}butanamide] | 7.64 | 7.64 |
| O=C(Nc1cc(-c2[nH]c3ccnnc3c2-c2ccccn2)ccn1)C(CC(F)F)c1ccc(F)cc1 (single isomer, unassigned) [Example 66, (2R or 2S)-4,4-difluoro-2-(4-fluorophenyl)-N-{4-[7-(pyridin-2-yl)-5H-pyrrolo[3,2-c]pyridazin-6-yl]pyridin-2-yl}butanamide] | 8.61 | 8.61 |
| O=C(Nc1cc(-c2[nH]c3ccnnc3c2-c2ccccn2)ccn1)C(CC(F)F)c1ccc(F)cc1 (single isomer, unassigned) [Example 67, (2R or S)-4,4-difluoro-2-(4-fluorophenyl)-N-{4-[7-(pyridin-2-yl)-5H-pyrrolo[3,2-c]pyridazin-6-yl]pyridin-2-yl}butanamide] | 7.66 | 7.66 |
| O=C(Nc1cc(-c2[nH]c3c(O[C@H]4CCOC4)ncnc3c2-c2ccccn2)ccn1)C(CC(F)F)c1ccc(F)cc1 (single isomer, unassigned) [Example 73, (2R or S)-4,4-difluoro-2-(4-fluorophenyl)-N-{4-[4-{[(3S)-oxolan-3-yl]oxy}-7-(pyridin-2-yl)-5H-pyrrolo[3,2-d]pyrimidin-6-yl]pyridin-2-yl}butanamide] | 8.38 | 8.38 |
| O=C(Nc1cc(-c2[nH]c3c(O[C@H]4CCOC4)ncnc3c2-c2ccccn2)ccn1)C(CC(F)F)c1ccc(F)cc1 (single isomer, unassigned) [Example 74, (2R or S)-4,4-difluoro-2-(4-fluorophenyl)-N-{4-[4-{[(3S)-oxolan-3-yl]oxy}-7-(pyridin-2-yl)-5H-pyrrolo[3,2-d]pyrimidin-6-yl]pyridin-2-yl}butanamide] | 7.45 | 7.45 |
| O=C(Nc1cc(-c2[nH]c3c(OCC(F)F)ncnc3c2-c2ccccn2)ccn1)C(CC(F)F)c1ccc(F)cc1 (single isomer, unassigned) [Example 79, (2R or S)—N-{4-[4-(2,2-difluoroethoxy)-7-(pyridin-2-yl)-5H-pyrrolo[3,2-d]pyrimidin-6-yl]pyridin-2-yl}-4,4-difluoro-2-(4-fluorophenyl)butanamide] | 8.51 | 8.51 |
| O=C(Nc1cc(-c2[nH]c3c(OCC(F)F)ncnc3c2-c2ccccn2)ccn1)C(CC(F)F)c1ccc(F)cc1 (single isomer, unassigned) [Example 80, (2R or S)—N-{4-[4-(2,2-difluoroethoxy)-7-(pyridin-2-yl)-5H-pyrrolo[3,2-d]pyrimidin-6-yl]pyridin-2-yl}-4,4-difluoro-2-(4-fluorophenyl)butanamide] | 7.77 | 7.77 |
| COc1cnc2c(-c3ccccn3)c(-c3ccnc(NC(=O)C(CC(F)F)c4ccc(F)cc4)c3)[nH]c2c1 (single isomer, unassigned) [Example 82, 4,4-difluoro-2-(4-fluorophenyl)-N-{4-[6-methoxy-3-(pyridin-2-yl)-1H-pyrrolo[3,2-b]pyridin-2-yl]pyridin-2-yl}butanamide] | 8.57 | 8.57 |
| COc1cnc2c(-c3ccccn3)c(-c3ccnc(NC(=O)C(CC(F)F)c4ccc(F)cc4)c3)[nH]c2c1 (single isomer, unassigned) [Example 83, 4,4-difluoro-2-(4-fluorophenyl)-N-{4-[6-methoxy-3-(pyridin-2-yl)-1H-pyrrolo[3,2-b]pyridin-2-yl]pyridin-2-yl}butanamide] | 8.01 | 8.01 |
| O=C(Nc1cc(-c2[nH]c3cc(Cl)cnc3c2-c2ccccn2)ccn1)C(CC(F)F)c1ccc(F)cc1 (single isomer, unassigned) [Example 88, (+)—N-{4-[6-chloro-3-(pyridin-2-yl)-1H-pyrrolo[3,2-b]pyridin-2-yl]pyridin-2-yl}-4,4-difluoro-2-(4-fluorophenyl)butanamide] | 8.33 | 8.33 |
| O=C(Nc1cc(-c2[nH]c3cc(Cl)cnc3c2-c2ccccn2)ccn1)C(CC(F)F)c1ccc(F)cc1 (single isomer, unassigned) [Example 89, (−)—N-{4-[6-chloro-3-(pyridin-2-yl)-1H-pyrrolo[3,2-b]pyridin-2-yl]pyridin-2-yl}-4,4-difluoro-2-(4-fluorophenyl)butanamide] | 7.05 | 7.05 |
| Cc1cnc2c(-c3ccccn3)c(-c3ccnc(NC(=O)C(CC(F)F)c4ccc(F)cc4)c3)[nH]c2n1 (single isomer, unassigned; (+)) [Example 86, (+)-4,4-difluoro-2-(4-fluorophenyl)-N-{4-[3-methyl-7-(pyridin-2-yl)-5H-pyrrolo[2,3-b]pyrazin-6-yl]pyridin-2-yl}butanamide] | 8.54 | 8.54 |
